The test system of one test is rat mixed glial OPCs. In words: Myelin protein expression in rat mixed glia-derived OPCs (qPCR, MBP ELISA). The test is classed as cell-based. As to the method:
Rat postnatal OPCs were obtained as described elsewhere according to the original procedure of [McCarthy and […] (1980)]. In brief, postnatal Day 1 rat pups were sacrificed, and cerebral cortices dissected and mechanically dissociated in medium composed of DMEM, 10% heat inactivated fetal bovine serum, and 5 μg/ml penicillin/streptomycin. Dissociated cells were plated and maintained in 75-cm^2 culture flasks for 10 days, replenishing with fresh media at Days 3 and 7. At Day 10, the flasks were shaken on a heated (37°C) shaker for 1 hr at 110 rpm to separate loosely attached microglial cells. The medium was replenished, and the cells incubated for the remainder of the day. To dislodge OPCs from the astrocyte monolayer, flasks were shaken overnight (210 rpm, 37°C). […] Cells were then plated on PDL-coated tissue culture plastic and treated with test compounds. […] The results are presented as specific mRNA expression relative to either β-actin or β-tubulin, used as internal controls as indicated. OPCs isolated from rat mixed glial cultures are known to mature readily in the absence of mitogens achieving a premyelinating OL stage as determined by the expression of the cell surface sulfatide O4, and the myelin proteins MBP and PLP among others ([Armstrong, 1998]; [Barbarese & Pfeiffer, 1981]; [[…], 1999]; [Jung-[…], Schumacher, Robel, & Baulieu, 1996]; [Konola, Tyler, Yamamura, & Lees, 1991]). They also display marked morphological changes, progressing from bipolar to multibranched cells generating membranous structures, and probably represent a later developmental stage than Nph-OPC. In rat mixed glial OPCs, we measured myelin protein expression at the RNA level by qPCR and MBP production by ELISA (MBL International, Woburn, MA).

In another test the test system is mouse-derived OPCs. In words: Myelin protein mRNA expression in mouse-derived OPCs (qPCR). The test is classed as cell-based. The following applies: mouse-derived OPCs exposed for 4 days. The protocol:
Neurospheres (Nph) were prepared from embryos at 14.5 days of gestation obtained from timed pregnant females of C57/Bl6 mice, as previously described ([Kornblum, Yanni, Easterday, & Seroogy, 2000]; [Pedraza, Monk, Lei, Hao, & Macklin, 2008]). In brief, after separation of meninges and cerebellum, cerebrum tissue was mechanically triturated with a 1-ml micropipette until total tissue dissociation was achieved, filtered through a 70 -µm cell strainer (Fisher Scientific, Pittsburgh, PA), and plated in 25-cm^2 plastic culture flasks (2 brains/flask). Nph proliferation media (NPM) consisted of Dulbecco’s Modified Eagle Medium (DMEM)/F12, B27 neuronal supplement (Gibco, Baltimore, MD) and 10 ng/ml […] (EGF; Sigma, St. Louis, MO). After 48 to 72 hr, floating Nphs were passaged at a 1 : 1 ratio into 75-cm^2 culture flasks. After a further 48 to 72 hr, they were passaged into 150-cm^2 flasks. […]
Total RNA was isolated from single-cell cultures or tissue explants using Tri-Zol reagent (Gibco). cDNA was generated from 1 to 3 µg of total RNA by Retrotranscriptase II (Gibco) reaction, and the selected transcripts were detected and amplified by quantitative RT-PCR in an Applied Biosystems (Grand Island, NY) 7500 fast qPCR machine, following the manufacturer’s instructions. […]
A general note: In qPCR the cycle at which signal appears reflects the starting amount.

The test system of test [1] is MYPT1 phosphorylation in mNph-OPC. Nature of the test: MYPT1 phosphorylation (sandwich ELISA, western blot) as ROCK target engagement. The following applies: for Decrease of MYPT1 phosphorylation (ELISA): 4-hr mNph-OPC treatment. A general note: ELISA stands for enzyme-linked immunosorbent assay.
Description: Tris-glycine acrylamide-bysacrylamide gradient gel electrophoresis was performed as follows: After washing the cells with ice-cold PBS, protein lysates were made by adding 50 µl of PhosphoSafe extraction reagent (EMD Millipore) supplemented with antiprotease cocktail (cOmplete; Roche, Branford, CT) onto each 100-mm^2 cell culture plate. After detaching the cells with the help of a cell scraper and disrupting cell membranes by sonication, the protein extracts were centrifuged (10,000 g, 10 min, 4℃) and the supernatants separated. Protein content was measured by the BCA protein determination method (Biorad, Hercules, CA), and 30 µg of total protein was mixed with SDS sample buffer (Laemmli) supplemented with 1% β-mercaptoethanol. After heating the samples to 70℃ for 10 min, they were loaded onto 4% to 20% acryl-bysacrylamide gradient gels, and electrophoresis was carried out at 120 volts with constant amperage.
Resolved proteins were then transferred onto nitrocellulose membranes using the iBlot methodology and device (Life technologies). […] Secondary detection was performed using Li-Cor IRDye secondary anti-mouse and anti-rabbit antibodies, and near-infrared signal was detected by Li-Cor’s Odyssey imaging system.
We assessed MYPT1 phosphorylation in Nph-OPCs treated for 4 hr with ROCK inhibitors in a dose-response experiment and using a sandwich ELISA as a measuring method (MBL International).
Test [2] has as its system human pluripotent stem cell-derived OPCs (hSC-OPCs). In words: Human stem cell-derived OPC differentiation assay (O4 staining, ArrayScan). Format: cell-based. The following applies: for EC50: Homo sapiens. The protocol:
Human oligodendrocytes were generated by a proprietary methodology of […] (Weizmann Science Park, Nes-Ziona, Israel; […].com). In brief, 5,000 human embryonic stem cell-derived OPCs (hES-OPCs) were seeded in each well of Matrigel and PDL-coated 96-well black μClear plates (Greiner, Frickenhausen, Germany). […] Twenty-four hours after seeding, medium was removed, and 200 μl of DIF fresh medium containing the compound of interest at a specific dilution (in 0.1% DMSO) was supplemented to the cells (first feeding). Total volume for each well was 200 μl. Four replicates were used for each dose of compound under study. After 48 hr, the media were replenished by removing 100 μl of media, and the same amount of fresh DIF media was added to the wells. Only at the first feeding, DIF media with 0.1% DMSO were used as control of the compound in medium containing 0.1% DMSO. Two experimental sets were conducted for the differentiation assay. On Day 21, live staining of oligodendrocytes was done by incubating the cells with O4 antibody (R&D Systems, Minneapolis, MN) for 20 min followed by detection with goat anti-mouse IgM-FITC (Chemicon) for additional 20 min. Cells were washed twice using DIF media. Immediately after, cells were fixed using 4% paraformaldehyde, and then washed with 1 × PBS, and 4',6-diamidino-2-phenylindole (DAPI; Sigma) was used for nuclear staining. […] Cellomics Neural profiling bioapplication was used for processing and analyzing the images. The 4-parameter Hill-Slope curve fittings were generated by GraphPad Prism software using the least squares fitting method, and EC50 values were calculated for the three major parameters of oligodendrocyte differentiation: number of differentiated oligodendrocytes, number of oligodendrocyte processes, and oligodendrocytes processes length (μm). The negative control groups of each experimental set were used for data normalization. We additionally studied the effect of ROCK inhibition in cultures of OPCs of human origin. […]

Like-named read-outs stand apart in the source and are kept apart here.

Consider `C[C@@H](N)[C@H]1CC[C@H](C(=O)Nc2ccncc2)CC1.Cl.Cl` [Y0503, trans-4-[(1 R)-1-aminoethyl]-N-4-pyridinylcyclohexanecarboxamide dihydrochloride], for which the “Expression of MBP, PLP, and MOG mRNAs (qPCR)” value with rat mixed glial OPCs (3 days maturation +4 days treatment, concentrations as low as 0.1 µM) is “significant increase”. Also, the “MBP at the protein level (ELISA)” value in the test on rat mixed glial OPCs (treatments at 24 hr and 72 hr after plating) is given as “increased expression”. The “MBP and PLP mRNA” value in the test with mouse-derived OPCs was “increased significantly”. The “Decrease of MYPT1 phosphorylation (ELISA)” value in test [1] (30 µM) is given as approximately 80%; in test [1] (100 µM), “more than 80%”. The “Duration of downregulation of MYPT1 phosphorylation (western blot)” value in test [1] (control levels again after 24 hr of treatment) was “over 12 hr”. The EC50 stood at 88.5 nM in test [2] (read-out: OLs processes count / well EC50) and 138 nM in test [2] (read-out: OLs processes total length / well EC50). Also, in test [2] (hSC-OPCs treated 48 hr, 21 days culture), the “Differentiation into O4-positive premyelinating stage” value is listed as “dose-response differentiation effect”.

The values above are taken from publication PMC4189421, “Induction of Oligodendrocyte Differentiation and In Vitro Myelination by Inhibition of Rho-Associated Kinase” (ASN NEURO, 2014).
